Test results taken from ChEMBL document CHEMBL1147234, “Bioassay-guided isolation of epiquinamide, a novel quinolizidine alkaloid and nicotinic agonist from an Ecuadoran poison frog, Epipedobates tricolor” (J Nat Prod, 2003).

Key:
Format in all cases: functional
[1] = target: Neuronal acetylcholine receptor; alpha4/beta2 (Homo sapiens) (UniProt P17787+P43681); assay: Agonist activity at human nicotinic alpha4beta2 receptor expressed in human K177 cells at 50 uM by cell based membrane potential assay relative to (+/-)-epibatidine
[2] = target: Neuronal acetylcholine receptor; alpha3/beta4 (Homo sapiens) (UniProt P30926+P32297); assay: Agonist activity at human nicotinic alpha3beta4 receptor expressed in human IMR32 cells at 50 uM by cell based membrane potential assay relative to (+/-)-epibatidine; conditions: IMR-32
[3] = target: Acetylcholine receptor; alpha1/beta1/delta/gamma (Homo sapiens) (UniProt P02708+P07510+P11230+Q07001); assay: Agonist activity at human nicotinic alpha-1-beta-1-gamma-delta receptor expressed in human TE-671 cells at 50 uM by cell based membrane potential assay relative to (+/-)-epibatidine
[4] = target: Neuronal acetylcholine receptor; alpha3/beta4 (Rattus norvegicus) (UniProt P04757+P12392); assay: Agonist activity at rat nicotinic alpha3beta4 receptor expressed in human KXalpha-3-beta-4R2 cells at 50 uM by cell based membrane potential assay relative to (+/-)-epibatidine
[5] = target: Neuronal acetylcholine receptor; alpha3/beta2 (Homo sapiens) (UniProt P17787+P32297); assay: Agonist activity at human nicotinic alpha3beta2 receptor expressed in human SH-SY5Y cells at 50 uM by cell based membrane potential assay relative to (+/-)-epibatidine

CC(=O)N[C@@H]1CCCN2CCCC[C@H]12 (relative stereo)
Activity [1]: 58%
Activity [2]: 15%
Activity [3]: 8%
Activity [4]: 23%
Activity [5]: 51%
